Results on 24 molecules are retold here after patent US20250179059A1 (The Regents of the University of California, priority 2021, published 2025).

Experiment [1] has as its system human SKM-1 acute myeloid leukemia cells. The experiment can be described thus: SKM-1 antiproliferation cell-based assay (ATPlite). To be noted: Homo sapiens, SKM-1, 96 h, SKM-1 antiproliferation assay, 4 days, Table C2. A digest of the protocol:
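Log-phase cells in RPMI 1640/15% FBS were seeded at 34722 cells/mL and exposed for 4 days to nine-concentration DMSO serial dilutions in triplicate. Viability was read as ATP luminescence (ATPlite 1step), and IC50 values came from variable-slope non-linear regression.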
A general note: In ATP-based viability assays light output follows the ATP content of the culture.

The target in experiment [2] is T1, human BRD4 bromodomain II (Homo sapiens, UniProt O60885).
T1 construct: human BRD4 bromodomain II [based on Genbank NM_058243, residues 349-460]; host or cells: E. coli
The experiment can be described thus: Bromodomain binding assay (AlphaScreen), BRD4 BDII. To be noted: AlphaScreen assay, Table C2; read-out: BRD4 BDII IC50. Summed up:
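AlphaScreen competition: His6-BRD4 BDI (aa 44-170) or BDII (aa 349-460) vs biotin-H4(1-21) K5/K8/K12/K16Ac peptide; Ni-chelate acceptor/streptavidin donor beads. HEPES pH 7.5, NaCl, CHAPS, BSA, 1% DMSO; RT. 10-pt 3-fold titration, % peptide binding fitted → IC50.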
In general terms: Alpha assays give light when donor and acceptor beads are brought close together.

SMILES strings stand for the structures.

As a reminder, the GI50 is the concentration giving 50% growth inhibition. For orientation: IC50 means the concentration at which inhibition is half-maximal. The molecule `Cn1ccn(-c2ccc(-c3cc(F)cc(-c4cncc(N5CCC(N)CC5)c4)c3O)cc2Cl)c1=O` [Example 459, 1-(3′-(5-(4-aminopiperidin-1-yl)pyridin-3-yl)-3-chloro-5′-fluoro-2′-hydroxy-[1,1′-biphenyl]-4-yl)-3-methyl-1H-imidazol-2(3H)-one] returned a GI50 in experiment [1] of 0.3 to 30 nM. Besides, the IC50 in experiment [2] lay in the range of 1 to 10 nM.
The molecule `CN1CCN(c2ccc(-c3cc(F)cc(-c4cc(N5CCNCC5)c5cc[nH]c5c4)c3O)cc2Cl)C1=O` [Example 460, 1-(3-chloro-5′-fluoro-2′-hydroxy-3′-(4-(piperazin-1-yl)-1H-indol-6-yl)-[1,1′-biphenyl]-4-yl)-3-methylimidazolidin-2-one] came in with a GI50 in experiment [1] of 0.3 to 30 nM. Also, the IC50 in experiment [2] lay in the range of 1 to 10 nM.
On to `Cn1ccn(-c2ccc(-c3cc(F)cc(-c4cncc(N5CCC[C@H](N)C5)c4)c3O)cc2Cl)c1=O` [Example 461, (S)-1-(3′-(5-(3-aminopiperidin-1-yl)pyridin-3-yl)-3-chloro-5′-fluoro-2′-hydroxy-[1,1′-biphenyl]-4-yl)-3-methyl-1,3-dihydro-2H-imidazol-2-one], for which the GI50 in experiment [1] fell in the range of 0.3 to 30 nM. Further, in experiment [2], the IC50 is 0.01 to 1 nM.
For `Cn1ncn(-c2ccc(-c3cc(F)cc(-c4ccnc(N5CCNCC5)c4)c3O)cc2Cl)c1=O` [Example 462, 4-(3-chloro-5′-fluoro-2′-hydroxy-3′-(2-(piperazin-1-yl)pyridin-4-yl)-[1,1′-biphenyl]-4-yl)-1-methyl-1H-1,2,4-triazol-5(4H)-one] the same measures were 30 to 300 nM and 1 to 10 nM.
Molecule `Cn1ccn(-c2ccc(-c3cc(F)cc(-c4ccnc(N5CCNCC5=O)c4)c3O)cc2Cl)c1=O` [Example 463, 1-(4-(3′-chloro-5-fluoro-2-hydroxy-4′-(3-methyl-2-oxo-2,3-dihydro-1H-imidazol-1-yl)-[1,1′-biphenyl]-3-yl)pyridin-2-yl)piperazin-2-one] showed a GI50 in experiment [1] of 30 to 300 nM. Besides, the IC50 in experiment [2] lay in the range of 0.01 to 1 nM.
In experiment [1], `[2H]C([2H])([2H])n1ccn(-c2ccc(-c3cc(F)cc(-c4ccnc(N5CCNCC5=O)c4)c3O)cc2Cl)c1=O` [Example 464, 1-(4-(3′-chloro-5-fluoro-2-hydroxy-4′-(3-deuteromethyl-2-oxo-2,3-dihydro-1H-imidazol-1-yl)-[1,1′-biphenyl]-3-yl)pyridin-2-yl)piperazin-2-one] yielded a concentration for 50% growth inhibition (GI50) of 30 to 300 nM. For the same molecule, the IC50 in experiment [2] fell in the range of 0.01 to 1 nM.
`CN1CCN(c2cncc(-c3cc(F)cc(-c4ccc(-n5ccn(C)c5=O)c(Cl)c4)c3O)c2)CC1` [Example 465, 1-(3-chloro-5′-fluoro-2′-hydroxy-3′-(5-(4-methylpiperazin-1-yl)pyridin-3-yl)-[1,1′-biphenyl]-4-yl)-3-methyl-1H-imidazol-2(3H)-one] came in with a GI50 in experiment [1] of 0.3 to 30 nM. Also, in experiment [2], the half-maximal inhibitory concentration (IC50) is 0.01 to 1 nM.
Molecule `[2H]C([2H])([2H])n1ccn(-c2ccc(-c3cc(F)cc(-c4ccnc(N5CC[C@H](NC)C5)c4)c3O)cc2Cl)c1=O` [Example 466, (S)-1-(3-chloro-5′-fluoro-2′-hydroxy-3′-(2-(3-(methylamino)pyrrolidin-1-yl)pyridin-4-yl)-[1,1′-biphenyl]-4-yl)-3-(deuteromethyl)-1H-imidazol-2(3H)-one] registered a GI50 in experiment [1] of 0.3 to 30 nM. In addition, in experiment [2], the IC50 lay within 0.01 to 1 nM.
In experiment [1], `C[C@@H]1CN(c2cncc(-c3cc(F)cc(-c4ccc(-n5ccn(C)c5=O)c(Cl)c4)c3O)c2)CCN1` [Example 467, (R)-1-(3-chloro-5′-fluoro-2′-hydroxy-3′-(5-(3-methylpiperazin-1-yl)pyridin-3-yl)-[1,1′-biphenyl]-4-yl)-3-methyl-1H-imidazol-2(3H)-one] displayed a GI50 of 0.3 to 30 nM. Moreover, the IC50 in experiment [2] lay in the range of 0.01 to 1 nM.
In experiment [1], `O=c1n(-c2ccc(-c3cc(F)cc(-c4ccnc(N5CCNCC5)c4)c3O)cc2Cl)ccn1C(F)F` [Example 468, 1-(3-chloro-5′-fluoro-2′-hydroxy-3′-(2-(piperazin-1-yl)pyridin-4-yl)-[1,1′-biphenyl]-4-yl)-3-(difluoromethyl)-1H-imidazol-2(3H)-one] came in with a GI50 of 300 to 3000 nM. Moreover, the IC50 in experiment [2] was in the range of 1 to 10 nM.
In the case of `CCN1CCN(c2cc(-c3cc(F)cc(-c4ccc(-n5ccn(C)c5=O)c(Cl)c4)c3O)ccn2)CC1` [Example 469, 1-(3-chloro-3′-(2-(4-ethylpiperazin-1-yl)pyridin-4-yl)-5′-fluoro-2′-hydroxy-[1,1′-biphenyl]-4-yl)-^3-methyl-1H-imidazol-2(3H)-one], the GI50 in experiment [1] was 0.3 to 30 nM. The IC50 in experiment [2] lay within 0.01 to 1 nM.
`Cn1ccn(-c2ccc(-c3cc(F)cc(-c4ccnc(N5CCN(CC6CC6)CC5)c4)c3O)cc2Cl)c1=O` [Example 470, 1-(3-chloro-3′-(2-(4-(cyclopropylmethyl)piperazin-1-yl)pyridin-4-yl)-5′-fluoro-2′-hydroxy-[1,1′-biphenyl]-4-yl)-3-methyl-1H-imidazol-2(3H)-one] came in with a GI50 in experiment [1] of 0.3 to 30 nM. In experiment [2], the IC50 was 1 to 10 nM.
For `Cn1ccn(-c2ccc(-c3cc(F)cc(-c4ccnc(N5CCN(CCO)CC5)c4)c3O)cc2Cl)c1=O` [Example 471, 1-(3-chloro-5′-fluoro-2′-hydroxy-3′-(2-(4-(2-hydroxyethyl)piperazin-1-yl)pyridin-4-yl)-[1,1′-biphenyl]-4-yl)-3-methyl-1H-imidazol-2(3H)-one] the same measures were 0.3 to 30 nM and 0.01 to 1 nM.
Regarding `Cn1ccn(-c2ccc(-c3cc(F)cc(-c4cncc(N5CCNCC5)c4)c3O)cc2Cl)c1=O` [Example 472, 1-(3-chloro-5′-fluoro-2′-hydroxy-3′-(5-(piperazin-1-yl)pyridin-3-yl)-[1,1′-biphenyl]-4-yl)-^3-methyl-1H-imidazol-2(3H)-one], the 50% growth inhibitory concentration (GI50) in experiment [1] lay in the range of 0.3 to 30 nM. For the same molecule, the IC50 in experiment [2] lay in the range of 1 to 10 nM.
On to `O=c1sccn1-c1ccc(-c2cc(F)cc(-c3ccnc(N4CCNCC4)c3)c2O)cc1Cl` [Example 473, 3-(3-chloro-5′-fluoro-2′-hydroxy-3′-(2-(piperazin-1-yl)pyridin-4-yl)-[1,1′-biphenyl]-4-yl)thiazol-2(3H)-one], for which the GI50 in experiment [1] lay in the range of 0.3 to 30 nM. Also, the IC50 in experiment [2] is 1 to 10 nM.
Turning to `C[C@@H]1CN(c2cncc(-c3cc(F)cc(-c4ccc(-n5ccn(C)c5=O)c(Cl)c4)c3O)c2)CCN1C` [Example 474, (R)-1-(3-chloro-3′-(5-(3,4-dimethylpiperazin-1-yl)pyridin-3-yl)-5′-fluoro-2′-hydroxy-[1,1′-biphenyl]-4-yl)-3-methyl-1H-imidazol-2(3H)-one], the GI50 in experiment [1] lay within 0.3 to 30 nM. Also, in experiment [2], the IC50 was in the range of 0.01 to 1 nM.
For `CN(C)[C@H]1CCN(c2cncc(-c3cc(F)cc(-c4ccc(-n5ccn(C)c5=O)c(Cl)c4)c3O)c2)C1` [Example 475, (S)-1-(3-chloro-3′-(5-(3-(dimethylamino)pyrrolidin-1-yl)pyridin-3-yl)-5′-fluoro-2′-hydroxy-[1,1′-biphenyl]-4-yl)-3-methyl-1H-imidazol-2(3H)-one] the same measures were 0.3 to 30 nM and 0.01 to 1 nM.
As for `CN[C@H]1CCN(c2cncc(-c3cc(F)cc(-c4ccc(-n5ccn(C)c5=O)c(Cl)c4)c3O)c2)C1` [Example 476, (S)-1-(3-chloro-5′-fluoro-2′-hydroxy-3′-(5-(3-(methylamino)pyrrolidin-1-yl)pyridin-3-yl)-[1,1′-biphenyl]-4-yl)-3-methyl-1H-imidazol-2(3H)-one], the GI50 in experiment [1] was 0.3 to 30 nM. In addition, in experiment [2], the IC50 lay in the range of 0.01 to 1 nM.
For `CN1CCN(c2ccc(-c3cc(F)cc(-c4ccc(=O)n(C5CCNCC5)c4)c3O)cc2Cl)C1=O` [Example 477, 5-(3′-chloro-5-fluoro-2-hydroxy-4′-(3-methyl-2-oxoimidazolidin-1-yl)-[1,1′-biphenyl]-3-yl)-1-(piperidin-4-yl)pyridin-2(1H)-one] the same measures were 30 to 300 nM and 1 to 10 nM.
In turn, `CN[C@H]1CCCN(c2cncc(-c3cc(F)cc(-c4ccc(-n5ccn(C)c5=O)c(Cl)c4)c3O)c2)C1` [Example 478, (S)-1-(3-chloro-5′-fluoro-2′-hydroxy-3′-(5-(3-(methylamino)piperidin-1-yl)pyridin-3-yl)-[1,1′-biphenyl]-4-yl)-3-methyl-1H-imidazol-2(3H)-one] displayed a GI50 in experiment [1] of 0.3 to 30 nM. For the same molecule, in experiment [2], the IC50 was in the range of 0.01 to 1 nM.
For `Cn1ccn(-c2ccc(-c3cc(F)cc(-c4cc(N5CCNCC5)c5cc[nH]c5c4)c3O)cc2Cl)c1=O` [Example 479, 1-(3-chloro-5′-fluoro-2′-hydroxy-3′-(4-(piperazin-1-yl)-1H-indol-6-yl)-[1,1′-biphenyl]-4-yl)-3-methyl-1H-imidazol-2(3H)-one] the same measures were 0.3 to 30 nM and 1 to 10 nM.
`Cn1ccn(-c2ccc(-c3cc(F)cc(-c4ccnc(-c5cccnc5)c4)c3O)cc2Cl)c1=O` [Example 480, 1−(3′-([2,3′-bipyridin]-4-yl)-3-chloro-5′-fluoro-2′-hydroxy-[1,1′-biphenyl]-4-yl)-3-methyl-1H-imidazol-2(3H)-one]: the GI50 in experiment [1] was 300 to 3000 nM. Besides, the IC50 in experiment [2] is 1 to 10 nM.
As for `Cn1ccn(-c2ccc(-c3cc(F)cc(-c4ccnc(-c5ccncc5)c4)c3O)cc2Cl)c1=O` [Example 481, 1-(3′-([2,4′-bipyridin]-4-yl)-3-chloro-5′-fluoro-2′-hydroxy-[1,1′-biphenyl]-4-yl)-3-methyl-1H-imidazol-2(3H)-one], in experiment [1], the GI50 was in the range of 300 to 3000 nM. In addition, the IC50 in experiment [2] lay within 1 to 10 nM.
In turn, `[2H]C([2H])([2H])n1ccn(-c2ccc(-c3cc(F)cc(-c4ccnc(N5CCNC[C@@H]5C)c4)c3O)cc2Cl)c1=O` [Example 482, (S)-1-(3-chloro-5′-fluoro-2′-hydroxy-3′-(2-(2-methylpiperazin-1-yl)pyridin-4-yl)-[1,1′-biphenyl]-4-yl)-3-deuteromethyl-1H-imidazol-2(3H)-one] yielded a GI50 in experiment [1] of 0.3 to 30 nM. Further, the IC50 in experiment [2] was in the range of 0.01 to 1 nM.
